Where two headings read alike, the source gives them in different places.

The conditions of test [1]: intraventricular; rabbits; cited from earlier work.
The conditions of test [2]: intraventricular; saline and pentobarbital-treated rats; cited from earlier work.
The target of test [3] is T1, Histamine H3 Receptor (Rattus norvegicus, UniProt Q9QYN8).
T1 construct: from tissue; host or cells: rat cerebral cortex membranes
Kind of test: In Vitro Histamine H3 Receptor Binding Analysis ([3H]-Nα-methylhistamine, rat cortical membranes). The procedure: Histamine H3 receptor affinity was determined in rat cortical membranes using the H3 selective agonist ligand, [^3 H]-N^α -methylhistamine (78.9 Ci/mmole, DuPont NEN Research Products, Boston, Mass.) according to the method of West et al., (1990) Mol. Pharmacol. 38: 610-613 with modifications. Briefly, animals were sacrificed by decapitation and the cerebral cortex was rapidly removed. Rat cortices were mechanically homogenized with an Omni 1000 motor driven homogenizer in 10 volumes (wt/vol) of Krebs-Ringers Hepes buffer (pH 7.4) containing the following protease inhibitors; EDTA (10 mmol), PMSF (0.1 mM), chymostatin (0.2 mg/50 mL) and leupeptin (0.2 mg/50 mL). The homogenate was centrifuged in a Sorvall at ~40,000 x g for 30 min. The pellet was resuspended by mechanical homogenization in 25 mL water and lysed on ice for 30 min. The homogenate was recentrifuged and the membrane lysis was repeated. The membranes were recentrifuged and the final pellet was resuspended in 14 volumes of water to give approximately 200 μg protein/100 μl final concentration. The suspension was stored at -80° C. prior to use. Protein concentrations were determined by Coomassie Plus Protein Assay (Pierce, Rockford, Ill.).
Nonspecific binding (NSB) was accounted for by the inclusion of thioperamide (10 μM). Samples were incubated for 40 minutes at 25° C. The samples were filtered through glass fiber strips, pre-washed with 0.3% polyethyleneimine, using a Brandell cell harvester. The filters were rapidly washed three times with 4 ml of 25 mM Tris buffer containing 145 mM NaCl (pH 7.4, 4° C.). Filters were transferred to polyethylene minivials and counted in 3.5 ml of scintillation fluid (Ecolume, ICN Biomedicals, Inc.). Using this procedure, the non-specific binding was less than 10% of the total binding and the binding to the glass fiber filters was negligible. Saturation and competition experiments were analyzed with the ReceptorFit saturation and competition curve fitting programs (Lundon Software, Inc., Cleveland, Ohio).

Test [4] deals with H3. The settings on record: cited from earlier work.
The subject of test [5] is H3 receptor. The note with it: cited from earlier work.
For test [6] the following is noted: dose-dependent; species not printed in this sentence (preceding sentence: cat); cited from earlier work.
Where [7] appears, read: rat cortical membranes, 0.8-1.2 nM [3H]-Nα-methylhistamine, 40 minutes at 25° C., pH 7.4, read-out: H3 Receptor Ki.

T1 sequence (Q9QYN8 whole entry): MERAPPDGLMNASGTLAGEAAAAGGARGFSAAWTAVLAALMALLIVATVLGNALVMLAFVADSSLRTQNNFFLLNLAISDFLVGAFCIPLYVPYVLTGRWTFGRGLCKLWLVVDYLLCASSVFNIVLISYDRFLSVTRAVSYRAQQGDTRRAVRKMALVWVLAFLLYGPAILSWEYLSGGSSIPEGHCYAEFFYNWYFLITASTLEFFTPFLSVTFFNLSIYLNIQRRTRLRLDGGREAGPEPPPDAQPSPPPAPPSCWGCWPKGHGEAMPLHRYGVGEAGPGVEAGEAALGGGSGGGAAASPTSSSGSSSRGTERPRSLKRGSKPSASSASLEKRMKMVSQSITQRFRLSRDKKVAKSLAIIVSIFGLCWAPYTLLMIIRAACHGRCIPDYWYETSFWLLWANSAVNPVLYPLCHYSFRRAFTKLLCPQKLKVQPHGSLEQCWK

Consider `NCCc1c[nH]cn1` [histamine], for which, in test [1], the “arousal EEG pattern” value is “induces the appearances of an arousal EEG pattern”. In addition, the “spontaneous locomotor activity, grooming and exploratory behavior” value in test [2] is “increased spontaneous locomotor activity, grooming and exploratory behavior”.
One may read the Ki as the equilibrium dissociation constant of an inhibitor or competing ligand from its target. Regarding `O=C(NCCc1ccccc1)[C@@H]1C[C@H]1c1c[nH]cn1` (relative stereo) [Example 9, (±)-trans-(2-imidazole-4-ylcyclopropyl)-N-(2-phenylethyl)formamide], the Ki in test [3] (setting [7]) was determined as 163 ± 19 nM.
`COC(=O)/C=C\[C@@H]1C[C@H]1c1cnc[nH]1` (relative stereo) [Example 53, (±) trans-Methyl-3-(2-imidazol-4-ylcyclopropyl)prop-2-enoate] came in with a Ki in test [3] of 21.6 ± 3.6 nM.
Same read-out and setting: for `C(=C\[C@H]1C[C@@H]1c1c[nH]cn1)/CCC1CCCCC1` [Example 25, (1S, 2S)-trans-4-(2-(4-Cyclohexylbut-trans-1-enyl)cyclopropyl)imidazole] the value was 56 ± 9 nM; for `C(=C/[C@@H]1C[C@H]1c1c[nH]cn1)/CCC1CCCCC1` (relative stereo) [Example 16, (±)-trans4-(2-(4-Cyclohexylbut-cis-1-enyl)cyclopropyl)imidazole], 12.2 ± 1 nM; for `O=C(NCC1CCCCC1)[C@@H]1C[C@H]1c1c[nH]cn1` (relative stereo) [Example 2, (±)-trans-N-(cyclohexylmethyl)(2-imidazol-4-ylcyclopropyl)formamide], 37 ± 4 nM.
As to `N[C@@H](Cc1ccc(I)cc1)C(=O)N[C@@H]1C[C@H]1c1cnc[nH]1` [Example 44], in test [3] (setting [7]), the Ki came to 10.4 ± 1.6 nM.
As for `O=C(NCC1CCCCC1)[C@H]1C[C@@H]1c1c[nH]cn1` [Example 2a], the Ki in test [3] (read-out: H3 Receptor Ki, rat cortical membranes, 0.8-1.2 nM [3H]-Nα-methylhistamine, 40 minutes at 25° C., pH 7.4) worked out at 23 ± 1 nM.
In the case of `CN(CC1CCCCC1)C(=O)[C@@H]1C[C@H]1c1c[nH]cn1` (racemic) [Example 11, (±)-trans-N-(cyclohexylmethyl)(2-imidazol-4-ylcyclopropyl)-N-methylformamide], in test [3] (setting [7]), the Ki worked out at 134 ± 1 nM.
Consider `COc1ccc(CC(=NO)C(=O)NCCc2c[nH]cn2)cc1Br`, for which the “H3 antagonism on guinea pig ileum” value in test [4] is given as “H3 antagonist on guinea pig ileum”. In test [5], the “activity in an H3 receptor assay” value is “active in an H3 receptor assay”.
Regarding `S=C(NC1CCCCC1)N1CCC(c2cnc[nH]2)CC1` [thioperamide], in test [6], the wakefulness result was “enhanced wakefulness in a dose-dependent fashion”.
